Test results taken from patent US20100068160A1, “COSMETIC AND DERMATOLOGICAL FORMULATIONS INCLUDING PHENOXYALKYL ESTERS” (EVONIK GOLDSCHMIDT GMBH, priority 2008, published 2010).

Test: Dissolving power of UV photoprotective filters in phenoxyalkyl esters
Assay type: physicochemical
Conditions: percent by weight, 22° C.; for Dissolving power for Benzophenone-3: maximum dissolvable amount of UV filter Benzophenone-3 (BP-3) in the substance; for Dissolving power for BMDM: maximum dissolvable amount of UV filter Butyl Methoxydibenzoylmethane (BMDM) in the substance; for Dissolving power for Tinosorb S: maximum dissolvable amount of UV filter Tinosorb S (Bemotrizinol, BEMT) in the substance; for Dissolving power for Uvinul T 150: maximum dissolvable amount of UV filter Uvinul T 150 (Octyl Triazone, EHT) in the substance
From the text: To test the dissolving power of crystalline UV photoprotective filters in phenoxyalkyl esters, four representative UV-A and/or UV-B photoprotective filters were selected by way of representation. These were benzophenone-3 (2-hydroxy-4-methoxybenzophenone, BP-3), Butyl Methoxydibenzoylmethane (BMDM), Octyl Triazone (2,4,6-trianilino-p-(carbo-2′-ethylhexyl-1′-oxy)-1,3,5-triazines, EHT) and Bemotrizinol (bis-ethylhexyloxyphenol meth-oxyphenyl triazine, BEMT).
To determine the dissolving power for these […] UV photoprotective filters, in each case a certain amount (50 g) of one of the compounds according to the invention was initially introduced and heated to 22° C. One (1) percent by weight of a UV photoprotective filter was added and the mixture was stirred until this amount had dissolved completely and homogeneously. This operation was repeated until the maximum dissolvable amount of the UV photoprotective filter was exceeded. For complete dissolution in the case of relatively high concentrations, a prolonged stirring time of several hours was often necessary.
If the maximum concentration had been roughly determined in this way, to finely determine the concentration range around this maximum concentration the procedure was repeated using smaller initial weight amounts of the […] photoprotective filter.
The reference used was the compound Tegosoft® TN (C12-15 alkyl benzoate).

Compound | Dissolving power for Benzophenone-3 | Dissolving power for BMDM | Dissolving power for Tinosorb S | Dissolving power for Uvinul T 150
C12-15 alkyl benzoate [Tegosoft ® TN, reference compound] | 15% | 13% | 9% | 4%
CC(C)CCCCCC(=O)OCCOc1ccccc1 [2-Phenoxyethyl isononanoate] | 25% | 16% | 9% | 4%
CCCCCC(=O)OCCOc1ccccc1 [2-Phenoxyethyl caproate] | 28% | 18% | 11% | 6%
CCCCC(CC)C(=O)OC(C)COc1ccccc1 (centres unmarked) [1-Phenoxy-2-propyl 2-ethylhexanoate] | 21% | 15% | 9% | 4%

Further lines, results first:

Dissolving power for Benzophenone-3 | Dissolving power for BMDM | Dissolving power for Tinosorb S | Dissolving power for Uvinul T 150 | Compound
20% | 13% | 9% | 4% | CCCCCC(CCC)C(=O)OCCOc1ccccc1 (centres unmarked) [2-Phenoxyethyl 2-propylheptanoate]
21% | 14% | 9% | 6% | CCCCCCCC(=O)OC(C)COc1ccccc1 (centres unmarked) [1-Phenoxy-2-propyl caprylate, 1-phenoxy-2-propyloctanoic acid ester]
27% | 16% | 10% | 6% | CC(COc1ccccc1)OC(=O)C1CCCCC1 (centres unmarked) [1-Phenoxy-2-propyl cyclohexanoate, 1-phenoxy-2-propylcyclohexanecarboxylic acid ester]
19% | 14% | 8% | 5% | CCCCCCC(CCCC)C(=O)OCCOc1ccccc1 (centres unmarked) [2-Phenoxyethyl 2-butyloctanoate, 2-phenoxyethyl-2-butyloctanoic acid ester]
25% | 17% | 12% | 4% | CCCCC(CC)C(=O)OCCOc1ccccc1 (centres unmarked) [2-Phenoxyethyl 2-ethylhexanoate, 2-phenoxyethyl-2-ethylhexanoic acid ester]
30% | 19% | 12% | 6% | O=C(OCCOc1ccccc1)C1CCCCC1 [2-Phenoxyethyl cyclohexanoate, 2-phenoxyethylcyclohexanecarboxylic acid ester]
28% | 18% | 11% | 6% | CCCCCCCC(=O)OCCOc1ccccc1 [2-Phenoxyethyl caprylate, 2-phenoxyethyloctanoic acid ester]
